Measurements taken from patent US20240002391A1, “4-ALKOXYPYRROLO[2,1-F][1,2,4]TRIAZINES AND PREPARATION AND USES THEREOF” (BioSplice Therapeutics, Inc., priority 2022, published 2024).

biological target: recombinant DYRK1A kinase (Homo sapiens (Human), UniProt Q13627); test: DYRK1A kinase assay (Ser/Thr 18 peptide Z-lyte FRET); format: biochemical; conditions: DYRK1A kinase activity, Z-lyte Ser/Thr 18 peptide, 15 μM ATP; method text calls the value IC50; read-out: EC50 (the source's name)
Method in brief: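 Steps: combine 0.25 μg/mL kinase, 15 μM ATP and 4 μM peptide with test compound; incubate 1 h at room temperature; add diluted development reagent for another hour; read coumarin and fluorescein emission at Ex 400. The emission ratio yields percent phosphorylation, from which IC50 is derived.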

Row | SMILES | IC50
1 | COc1nc(N[C@H](C)C2COC2)nn2ccc(-c3cnc4nccn4c3)c12 [Compound 927, (R)-5-(Imidazo[1,2-a]pyrimidin-6-yl)-4-methoxy-N-(1-(oxetan-3-yl)ethyl)pyrrolo[2,1-f][1,2,4]triazin-2-amine] | 1.2 nM
2 | COc1nc(N[C@H]2CC[C@@H](C(C)(C)O)CC2)nn2ccc(-c3ccc4nccnc4c3)c12 [Compound 341, 2-(cis-4-((4-methoxy-5-(quinoxalin-6-yl)pyrrolo[2,1-f][1,2,4]triazin-2-yl)amino)cyclohexyl)propan-2-ol] | 9.3 nM
3 | COc1nc(NC2CCN(CC(F)F)CC2)nn2ccc(-c3ccc4nccn4c3)c12 [Compound 61, N-(1-(2,2-Difluoroethyl)piperidin-4-yl)-5-(imidazo[1,2-a]pyridin-6-yl)-4-methoxypyrrolo[2,1-f][1,2,4]triazin-2-amine] | 4.9 nM
4 | COc1nc(N[C@@H]2CCN(C3COC3)CC2(F)F)nn2ccc(-c3ccc4nnn(C)c4c3)c12 [Compound 628, (R)—N-(3,3-Difluoro-1-(oxetan-3-yl)piperidin-4-yl)-4-methoxy-5-(1-methyl-1H-benzo[d][1,2,3]triazol-6-yl)pyrrolo[2,1-f][1,2,4]triazin-2-amine] | 6.3 nM
5 | COc1nc(NC2CCC3(CC2)COC3)nn2ccc(-c3ccc4nccnc4c3)c12 [Compound 390, 4-Methoxy-5-(quinoxalin-6-yl)-N-(2-oxaspiro[3.5]nonan-7-yl)pyrrolo[2,1-f][1,2,4]triazin-2-amine] | 3 nM
6 | COc1nc(N[C@H]2CC[C@](C)(O)CC2)nn2ccc(-c3cc(F)c4nc(C)n(C(C)C)c4c3)c12 [Compound 168, trans-4-((5-(4-Fluoro-1-isopropyl-2-methyl-1H-benzo[d]imidazol-6-yl)-4-methoxypyrrolo[2,1-f][1,2,4]triazin-2-yl)amino)-1-methylcyclohexan-1-ol] | 2.7 nM
7 | COc1nc(N[C@H]2CC[C@@H](OCCO)CC2)nn2ccc(-c3ccc4nccn4c3)c12 [Compound 49, 2-((cis-4-((5-(Imidazo[1,2-a]pyridin-6-yl)-4-methoxypyrrolo[2,1-f][1,2,4]triazin-2-yl)amino)cyclohexyl)oxy)ethan-1-ol] | 2.6 nM
8 | COc1nc(N[C@@H]2CCN(C3COC3)C[C@@H]2F)nn2ccc(-c3ccc4nccnc4c3)c12 [Compound 373, N-((3S,4R)-3-Fluoro-1-(oxetan-3-yl)piperidin-4-yl)-4-methoxy-5-(quinoxalin-6-yl)pyrrolo[2,1-f][1,2,4]triazin-2-amine] | 2.9 nM
9 | COc1nc(N[C@H]2C[C@@](C)(O)C2)nn2ccc(-c3cc(F)c4nc(C)n(CC(F)F)c4c3)c12 [Compound 509, cis-3-((5-(1-(2,2-Difluoroethyl)-4-fluoro-2-methyl-1H-benzo[d]imidazol-6-yl)-4-methoxypyrrolo[2,1-f][1,2,4]triazin-2-yl)amino)-1-methylcyclobutan-1-ol] | 1.4 nM
10 | COc1nc(NC2CCC(=O)N(C)C2)nn2ccc(-c3ccc4nnn(CC(F)F)c4c3)c12 (stereo not drawn) [Compound 793, 5-((5-(1-(2,2-Difluoroethyl)-1H-benzo[d][1,2,3]triazol-6-yl)-4-methoxypyrrolo[2,1-f][1,2,4]triazin-2-yl)amino)-1-methylpiperidin-2-one] | 1.3 nM
11 | COc1nc(N[C@H]2C[C@@](C)(O)C2)nn2ccc(-c3ccn4nccc4c3)c12 [Compound 7, cis-3-((4-Methoxy-5-(pyrazolo[1,5-a]pyridin-5-yl)pyrrolo[2,1-f][1,2,4]triazin-2-yl)amino)-1-methylcyclobutan-1-ol] | 4.6 nM
12 | COc1nc(N[C@@H]2CCN(C)C[C@@H]2F)nn2ccc(-c3ccc4nccnc4c3)c12 [Compound 367, N-((3S,4R)-3-Fluoro-1-methylpiperidin-4-yl)-4-methoxy-5-(quinoxalin-6-yl)pyrrolo[2,1-f][1,2,4]triazin-2-amine] | 3.3 nM
13 | COc1nc(NC2CC3(CCN(C(C)=O)CC3)C2)nn2ccc(-c3ccc4nccnc4c3)c12 [Compound 386, 1-(2-((4-Methoxy-5-(quinoxalin-6-yl)pyrrolo[2,1-f][1,2,4]triazin-2-yl)amino)-7-azaspiro[3.5]nonan-7-yl)ethan-1-one] | 0.9 nM
14 | COc1nc(N[C@H]2C[C@](C)(NC(C)=O)C2)nn2ccc(-c3ccn4nccc4c3)c12 [Compound 96, N-(trans-3-((4-Methoxy-5-(pyrazolo[1,5-a]pyridin-5-yl)pyrrolo[2,1-f][1,2,4]triazin-2-yl)amino)-1-methylcyclobutyl)acetamide] | 1 nM

More lines, now with the values ahead:

Row | IC50 | SMILES
15 | 2.5 nM | COc1nc(NC2CCOCC2)nn2ccc(-c3ccc4nccnc4c3)c12 [Compound 366, 4-Methoxy-5-(quinoxalin-6-yl)-N-(tetrahydro-2H-pyran-4-yl)pyrrolo[2,1-f][1,2,4]triazin-2-amine]
16 | 2.8 nM | COc1nc(N[C@H]2C[C@@](C)(N)C2)nn2ccc(-c3ccc4nccnc4c3)c12 [Compound 332, cis-N1-(4-Methoxy-5-(quinoxalin-6-yl)pyrrolo[2,1-f][1,2,4]triazin-2-yl)-3-methylcyclobutane-1,3-diamine]
17 | 2.3 nM | COc1nc(N[C@H]2CCN(C3COC3)C[C@H]2F)nn2ccc(-c3cc(F)c4nc(C)n(C(C)C)c4c3)c12 [Compound 1142, N-((3R,4S)-3-Fluoro-1-(oxetan-3-yl)piperidin-4-yl)-5-(4-fluoro-1-isopropyl-2-methyl-1H-benzo[d]imidazol-6-yl)-4-methoxypyrrolo[2,1-f][1,2,4]triazin-2-amine]
18 | 3.3 nM | COc1nc(N[C@@H]2CCN(C)CC2(F)F)nn2ccc(-c3ccc4nccnc4c3)c12 [Compound 375, (R)—N-(3,3-Difluoro-1-methylpiperidin-4-yl)-4-methoxy-5-(quinoxalin-6-yl)pyrrolo[2,1-f][1,2,4]triazin-2-amine]
19 | 3 nM | COc1nc(NC2CCC3(CC2)COC3)nn2ccc(-c3ccc4nc(C)n(CCO)c4c3)c12 [Compound 174, 2-(6-(2-((2-Oxaspiro[3.5]nonan-7-yl)amino)-4-methoxypyrrolo[2,1-f][1,2,4]triazin-5-yl)-2-methyl-1H-benzo[d]imidazol-1-yl)ethan-1-ol]
20 | 6.7 nM | COc1nc(NC2CC3(CCOCC3)C2)nn2ccc(-c3ccc4nccnc4c3)c12 [Compound 1100, 4-Methoxy-5-(quinoxalin-6-yl)-N-(7-oxaspiro[3.5]nonan-2-yl)pyrrolo[2,1-f][1,2,4]triazin-2-amine]
21 | 1.9 nM | COc1nc(N[C@H]2CC[C@](C)(O)CC2)nn2ccc(-c3ccc4nnn(C(C)C)c4c3)c12 [Compound 681, (1r,4r)-4-((5-(1-Isopropyl-1H-benzo[d][1,2,3]triazol-6-yl)-4-methoxypyrrolo[2,1-f][1,2,4]triazin-2-yl)amino)-1-methylcyclohexan-1-ol]
22 | 0.3 nM | COc1nc(NC2CCN(C3COC3)CC2)nn2ccc(-c3ccc4nnn(CC(F)F)c4c3)c12 [Compound 750, 5-(1-(2,2-Difluoroethyl)-1H-benzo[d][1,2,3]triazol-6-yl)-4-methoxy-N-(1-(oxetan-3-yl)piperidin-4-yl)pyrrolo[2,1-f][1,2,4]triazin-2-amine]
23 | 1.1 nM | COc1nc(N[C@H]2CC[C@](C)(O)CC2)nn2cc(F)c(-c3ccc4ncccc4c3)c12 [Compound 1056, trans-4-((6-Fluoro-4-methoxy-5-(quinolin-6-yl)pyrrolo[2,1-f][1,2,4]triazin-2-yl)amino)-1-methylcyclohexan-1-ol]
24 | 3.3 nM | COc1nc(N[C@H]2C[C@@](C)(NC(C)=O)C2)nn2ccc(-c3ccc4nc(C)n(CC(F)F)c4c3)c12 [Compound 108, N-(cis-3-((5-(1-(2,2-Difluoroethyl)-2-methyl-1H-benzo[d]imidazol-6-yl)-4-methoxypyrrolo[2,1-f][1,2,4]triazin-2-yl)amino)-1-methylcyclobutyl)acetamide]
25 | 2.7 nM | COc1nc(N[C@@H]2CCC(=O)N(C)C2)nn2ccc(-c3ccc4nccnc4c3)c12 [Compound 1097, (R)-5-((4-Methoxy-5-(quinoxalin-6-yl)pyrrolo[2,1-f][1,2,4]triazin-2-yl)amino)-1-methylpiperidin-2-one]
26 | 56.2 nM | COc1nc(N[C@@H]2[C@@H]3COC[C@@H]32)nn2ccc(-c3ccn4nccc4c3)c12 [Compound 80, N-((1R,5S,6s)-3-Oxabicyclo[3.1.0]hexan-6-yl)-4-methoxy-5-(pyrazolo[1,5-a]pyridin-5-yl)pyrrolo[2,1-f][1,2,4]triazin-2-amine]
27 | 0.1 nM | COc1nc(N[C@H]2CCN(C(C)=O)C[C@H]2F)nn2ccc(-c3ccc4nnn(CC(F)F)c4c3)c12 [Compound 771, 1-((3R,4S)-4-((5-(1-(2,2-Difluoroethyl)-1H-benzo[d][1,2,3]triazol-6-yl)-4-methoxypyrrolo[2,1-f][1,2,4]triazin-2-yl)amino)-3-fluoropiperidin-1-yl)ethan-1-one]
28 | 2 nM | COc1nc(N[C@@H](C)C2COC2)nn2ccc(-c3cnc4nccn4c3)c12 [Compound 928, (S)-5-(Imidazo[1,2-a]pyrimidin-6-yl)-4-methoxy-N-(1-(oxetan-3-yl)ethyl)pyrrolo[2,1-f][1,2,4]triazin-2-amine]
29 | 1.7 nM | COc1nc(NC2CCC3(CC2)CN(C(C)=O)C3)nn2ccc(-c3ccc4nc(C)n(CCO)c4c3)c12 [Compound 173, 1-(7-((5-(1-(2-hydroxyethyl)-2-methyl-1H-benzo[d]imidazol-6-yl)-4-methoxypyrrolo[2,1-f][1,2,4]triazin-2-yl)amino)-2-azaspiro[3.5]nonan-2-yl)ethan-1-one]
30 | 2.6 nM | CC[C@]1(O)CC[C@H](Nc2nc(OC)c3c(-c4cc(F)c5nccn5c4)ccn3n2)CC1 [Compound 433, (1r,4r)-1-Ethyl-4-((5-(8-fluoroimidazo[1,2-a]pyridin-6-yl)-4-methoxypyrrolo[2,1-f][1,2,4]triazin-2-yl)amino)cyclohexan-1-ol]
